Consider ten compounds from patent publication US6875736B2, “Methods for identifying RNA binding compounds” (priority 1999, dated 2005).

For orientation: Kd means the equilibrium constant for the complex coming apart.

Non-standard residues stand in square brackets, D forms with d. Residues, ends and D or L forms follow the SMILES beside them.

In one data set the target is wild-type TAR RNA. Put plainly: Solid-phase RNA-peptide binding assay (dissociation constant). The note with it: for Kd: wild-type TAR RNA, TK buffer, overnight at 4° C., four independent experiments; for KREL: KD of a basic Tat peptide / KD of inhibitor; for dissociation constant relative to tripeptide ID#1 (times higher): diastereomers of tripeptide ID#1. Further details: species or system HIV-1. The text has this:
Solid-phase RNA-peptide binding assays. TAR RNA binding compounds found and decoded as described above (shown in Table 1) were synthesized on TENTAGEL S-NH2 (4.6 μmole). All fluorenylmethoxycarbonyl (Fmoc)-protected amino acids were purchased from Bachem (Torrance, Calif.). 1-hydroxybenzotriazole (HOBT) and diisopropylcarbodiimide (DIPCDI) were obtained from Aldrich Chemical Co., Milwaukee, Wis. Piperidine and trifluoroacetic acid were purchased from Applied Biosystems Division, Perkin-Elmer. All ligands were synthesized manually according to standard solid-phase peptide synthesis protocols. Coupling efficiencies of residues at each step were monitored using a standard Kaiser test. Deprotection of tripeptides was carried out in 10% water in trifluoroacetic acid (1 mL) for 16 hours at room temperature. After filtration of solvents, the resin was washed with water (1 mL×4), DMF (1 mL×4), and dichloromethane (1 mL×4), and dried under reduced pressure. Ten beads with attached tripeptides were placed in an Eppendorff tube and washed with TK buffer (200 μL×3). The beads were suspended in TK buffer (300 μL) and incubated with TAR RNA (1.95 μM) overnight at 4° C. The suspension was spun in a centrifuge, and the supernatant containing unbound RNA was transferred to a cuvette for optical density measurements at 260 nm using a Shimadzu UV-1601 spectrometer. Equilibrium concentrations of RNA were determined from these measurements. Given that the initial concentrations of ligand and RNA are known, and assuming simple bimolecular receptor/substrate binding, a dissociation constant (KD) was calculated from known equations in order to determine which test compounds bind TAR RNA most tightly.
To verify that this assay reflected RNA-tripeptide interactions and to determine the affinity of these tripeptides for TAR RNA, the eight tripeptides were resynthesized and their dissociation constants with wild-type TAR RNA were measured. […] To compare the RNA binding affinities of 8 ligands to natural Tat peptide, a Tat-derived peptide (Gly48 to Arg57) containing the RNA-binding region of Tat protein was synthesized (FIG. 2(b)) (SEQ. ID. NO. 2). The dissociation constant of the Tat peptide-RNA complex was determined under the same conditions used for the tripeptide-RNA complexes. […] A relative dissociation constant (KREL) can be calculated as the ratios of the Tat peptide to tripeptide dissociation constants (KD) for TAR RNA. Tripeptide ID #1 binds TAR RNA with affinities higher than the wild-type Tat peptide.

Data set [1] relates to TAR RNA. The data set is described as follows: On-bead screening of encoded tripeptide library with disperse red-labeled TAR RNA. In kind it is binding, HIV-1. The conditions noted are these: for Color: bead colour with 250 nM disperse red-labeled TAR RNA, 4° C., red after 2 days, pink-red after 3 further days; for Frequency: number of stained beads decoded with this sequence, three copies of library, bead peptides N-acetylated. Here is the method: Screening the library with TAR RNA. Three copies of the tripeptide library on encoded beads, which contain more than 95% of the members of the library, were placed in an eppendoff tube and washed with water (500 μL×5) and TK buffer (50 mM Tris-HCl (pH 7.4), 20 mM KCl, 0.1% Triton X-100) (500 μL×4), which is commonly used for the formation of Tat-TAR complexes in vitro (Churcher et al. (1993) J. Mol. Biol. 230, 90-110). After filtration, the beads were suspended in TK buffer (400 μL) and bovine serum albumin (0.1 mg/mL) at room temperature for 1 hour to reduce nonspecific binding. The aqueous phase was removed, and the beads were washed with TK buffer (500 μL×3). After filtration, the beads were resuspended in […] TK buffer, 2.5 μM of bulge mutant TAR RNA was added, and the suspension was stirred at 4° C. for 1 day. The buffer was removed, the beads were resuspended in […] TK buffer, and 250 nM disperse red-dye-labeled-TAR RNA and 2.5 μM bulge mutant TAR RNA were added. After 2 days of stirring at 4° C., the buffer was removed, and the remaining beads were washed with water (500 μL×3). Two red beads were picked under a microscope and placed in separate capillary tubes. The remaining beads were further incubated with a mixture of disperse-red-dye-labeled TAR RNA and bulge mutant TAR RNA for 3 days, as described above. During the second screening, eight beads turned red. These beads were picked and placed in capillary tubes.
Decoding the structures of RNA-binding ligands. A disperse-red dye labeled encoded bead was placed in a 25 μL micro capillary tube containing dimethylformamide (DMF) (2 μL) and the bead was washed with DMF(5 μL×4). After draining the solvent, the bead was resuspended in 2 μL DMF and the micro capillary tube was centrifuged for 4 min and then flame sealed. Each capillary tube containing a bead was then irradiated with UV radiation at 350 nm for 4 hours and spun for 5 minutes in a centrifuge. The capillary tube was opened and the cleaved tag alcohols were silylated with N, O-bis(trimethylsilyl)acetamide in a micro syringe. The N, O-bis(trimethylsilyl)acetamide derivatives (1 μL) were analyzed using electron capture gas chromatography (“ECGC”). A Hewlett Packard 6890 series Gas Chromatography system, equipped with a micro electron capture detector (μ-ECD) and a HP Chemstation operating system, was used for all decoding analyses. The GC was operated in splitless inlet mode, using helium as the carrier gas. A 35 m×0.2 mm i.d.×0.33 μm film thickness HP-Ultra 1 column was used with a temperature program of 1 min isothermal at 200° C. followed by heating at 10° C./min to 320° C. The μ-ECD make up gas was nitrogen.
On-bead selection of structure-specific TAR RNA binding compounds. To identify tripeptides that bind to TAR RNA, the dye disperse red was covalently attached to TAR RNA, and the labeled RNA was incubated in a suspension of library beads made using the split synthesis method. […] Nevertheless, the dye-TAR RNA conjugate was able to enter the beads and bind in a structure-dependent manner to tripeptides attached thereto. The red color of the dye was clearly evenly distributed throughout the translucent bead. Broken beads were not selected. Peptides specific for portions of TAR RNA other than the bulge region were blocked using a relatively large concentration of an unlabeled bulge mutant TAR RNA. A small amount of detergent and low RNA concentrations (250 nM) also minimized non-specific binding.
Ligand Sequence Analysis. Upon incubating the dye-TAR RNA conjugate with the library, only two beads were stained red. These two beads were separated from the rest of the library, which was allowed to incubate with the dye-TAR RNA conjugate for 3 days at 4° C. […] At the end of the second incubation, only eight additional beads were stained pink-red.

The next data set has as its system luciferase gene. Put plainly: Luciferase internal control in HL3T1 cells (pAL plasmid). The class given is cell-based. The conditions noted are these: increasing amounts of ligand. Here is the method: (§1) Inhibition of Tat trans-activation in cellular assays. […] Cells were grown in 2 mL of Dulbecco's modified Eagle medium (DMEM) supplemented with 10% fetal calf serum in 60 mm dishes at 37° C. in 5% CO2 in a tissue culture incubator. Cells were refreshed by 2 mL DMEM before transfection. Transfection was started by dropwise addition of 250 μL 2×Hepes-buffered saline and maintenance at room temperature for 10 minutes. Approximately 10 μg of plasmids (pSV2Tat and pAL) and increasing amounts of tripeptide 1 were transfected in the presence of CaCl2 (final concentration 125 mM) and the cells were incubated for 4 hours at 37° C. in a tissue culture incubator. The medium was then discarded and the cells were subjected to glycerol shock (1.5 mL of 15%) for 45 seconds. Finally, the cells were washed twice with 5 mL phosphate-buffered saline (PBS) and were grown in 3 mL DMEM. DMEM was changed at 24 hours post-transfection, and cells were harvested 48 hours post-transfection. Cells were lysed in reporter lysis buffer (Promega). Aliquots were used for CAT and luciferase assays. Both activities were normalized to protein concentration determined by using a modified Bradford assay (Bio-Rad).
(§2) Inhibition of Tat trans-activation in vivo. […] Luciferase reporter gene provides an internal control.

Data set [2] concerns TAR RNA. The data set is described as follows: NMR (TOCSY/NOESY) of TAR RNA with ligand. The note with it: 1 to 2 mM RNA and ligand, 5 mM phosphate buffer pH 5.5. In kind it is binding, HIV-1. Here is the method: NMR Spectroscopy. NMR experiments were performed to determine the interaction sites of tripeptide ID#1 on TAR RNA. NMR spectra of free TAR RNA and TAR RNA complexed with tripeptide ID#1 were recorded. Due to the spectral overlap, it was impossible to follow all but a few well-isolated resonances by conventional 1-dimensional experiments. Therefore, two-dimensional NOESY and TOCSY experiments were performed. All spectra were recorded on a Bruker AMX-500 NMR spectrometer operating at 500 MHz for ^1H equipped with triple resonance probe and H-broadband inverse detection probes. The 1D and 2D ^1H spectra were recorded at approximately 1 to 2 mM RNA and tripeptide ID#1 concentrations in 5 mM phosphate buffer (pH 5.5), with up to 100 mM NaCl. All other conditions were the same as described earlier by Aboul-ela et al. ((1995) J. Mol. Biol. 253, 313-332.). Complete TAR RNA assignments were obtained. Increasing amounts of tripeptide 1 were added to TAR RNA and the spectral changes were monitored by two-dimensional TOCSY experiments. The TOCSY spectrum contains a region where only pyrimidine H5-H6 resonances are found; this region has a well-dispersed 2D spectrum. Resonances in the free RNA and RNA-ligand complexes were assigned by NOESY experiments. […]

Another data set relates to dye-labeled TAR RNA. The data set is described as follows: Equilibrium interaction of dye-labeled TAR RNA with bead-tethered tripeptide. In kind it is binding, HIV-1. The note with it: dye-labeled TAR RNA 1 μM, TK buffer, 4° C., 5 hours. The procedure: Second, the equilibrium interaction between dye-labeled TAR RNA and a tripeptide tethered to beads was examined by incubating a suspension of beads containing tripeptide ID#1 in TK buffer (400 μL) with dye-labeled TAR RNA (1 μM) at 4° C. for 5 hours. Beads were stained red upon TAR RNA binding. The interaction between dye-labeled TAR RNA and tripeptide ID #1 is reversible and can be abolished by the addition of unlabeled TAR RNA or tripeptide ID#1 as a competitor. Finally, screening the library with dye-labeled TAR RNA was carried out in the presence of excess unlabeled bulge mutant TAR RNA, inhibiting non-specific TAR RNA-peptide interactions.

Data set [3] deals with Tat trans-activation (HIV-1 LTR promoter, CAT reporter gene). The data set is described as follows: Inhibition of Tat trans-activation in HL3T1 cells (CAT reporter). The class given is cell-based. Here is the method:
as §1, §2

“GRKKRRQRRR [Tat peptide, reference compound]”: at wild-type TAR RNA, the Kd was 0.698 µM.
Regarding H2N-(L)Lys-(D)Lys-(D)Asn-OH [ID #2], in the data set on wild-type TAR RNA, the KREL stood at 0.17, the “dissociation constant relative to tripeptide ID#1 (times higher)” value is “approximately 7 times” and binding was characterised by a dissociation constant (Kd) of 4.17 µM. Besides, in the data set on TAR RNA [1], the Color entry is reported as “Pink” and the Frequency is given as 1.
For the compound H2N-(L)Lys-(L)Lys-(L)Asn-OH [ID #3], in the data set with wild-type TAR RNA, the KREL came out at 0.23, the “dissociation constant relative to tripeptide ID#1 (times higher)” value was “approximately 7 times” and binding was put at a Kd of 3.22 µM. In addition, in the data set with TAR RNA [1], the Color result is listed as “Pink” and the Frequency is listed as 2.
As for H2N-(D)Thr-(D)Lys-(L)Asn-OH [ID #7], in the data set with wild-type TAR RNA, the KREL came to 1.29 and the affinity, expressed as Kd, was 0.564 ± 0.08 µM. Also, in the data set with TAR RNA [1], the Color result is listed as “Pink” and the Frequency is 1.
The like results for H2N-(L)Arg-(D)Lys-(L)Val-OH [ID #5] were, in that order, 0.07, 10.4 µM, “Pink” and 1.
In the data set on wild-type TAR RNA, H2N-(D)Thr-(D)Lys-(L)Phe-OH [ID #8] came in with a KREL of 0.35 and a Kd of 2.09 µM. For the same compound, in the data set with TAR RNA [1], the Color result is reported as “Pink” and the Frequency is 1.
The like results for H2N-(L)Arg-(D)Lys-(L)Arg-OH [ID #6] were, in that order, 0.83, 0.878 ± 0.08 µM, “Pink” and 1.
For `NCCCC[C@H](N)C(=O)N[C@H](CCCCN)C(=O)N[C@@H](CC(N)=O)C(=O)O` [ID #1, H2N-(L)Lys-(D)Lys-(L)Asn-OH] (H-Lys-[dK]-Asn-OH), in the data set on luciferase gene, the “Transcription of the luciferase gene” value was “not affected”. Moreover, the “shift of TAR RNA resonances in TOCSY spectra” value with TAR RNA [2] was “Resonances in the bulge region, U23 and C24, were shifted”. Further, in the data set with dye-labeled TAR RNA, the “bead staining upon dye-labeled TAR RNA binding” value was “stained red”. Moreover, the “Cell viability / toxicity to the cells” value with HL3T1 cells is reported as “not toxic”. In the data set on wild-type TAR RNA, this compound had a KREL of 1.73 and a Kd of 0.42 ± 0.044 µM. In addition, the Kd at wild-type TAR RNA (listed as tripeptide ID#1) turned out to be 0.441 µM. Moreover, in data set [3] (700 nM, CAT activity), the Tat trans-activation inhibited result is “more than 90%”. In addition, in the data set with TAR RNA [1], the Color entry is on record as “Red” and the Frequency was determined as 2.
Take `N=C(N)NCCC[C@H](N)C(N)=O` [L-argininamide, reference compound]: the “inhibitory effect on Tat transactivation” value in data set [3] (control ligands) is recorded as “no inhibitory effect”.
In the data set on wild-type TAR RNA, H2N-(L)Arg-(D)Lys-(L)Asn-OH [ID #4] displayed a KREL of 0.28 and a Kd of 2.64 µM. Also, in the data set with TAR RNA [1], the Color entry is recorded as “Pink” and the Frequency is recorded as 1.
